Laboratory results from US11040963B2 (priority 2017, dated 2021).

Assays:
H5N1 A/Vietnam/1203/04 = assay: microbe, parasite or virus in culture; type: cell-based, influenza A virus; conditions: Influenza A virus, H5N1, MDCK, 96 h, read-out: Virus neutralization assay (VNA), pEC50 H5N1 A/Vietnam/1203/04, MDCK cells, 96 h, CPE by ATPlite (converted); average of repeats
[1] = target: HA H1 A/New Caledonia/20/99 (Influenza A virus (A/New Caledonia/20/1999(H1N1)), UniProt Q6WG00); assay: biochemical; conditions: Competition binding (AlphaLISA), pIC50 H1 A/New Caledonia/20/99
[2] = system: H1N1 A/New Caledonia/20/99; assay: microbe, parasite or virus in culture; type: cell-based, influenza A virus; conditions: Influenza A virus, H1N1, MDCK, 96 h, read-out: Virus neutralization assay (VNA), pEC50 H1N1 A/New Caledonia/20/99 (converted)
[3] = target: HA H1 A/California/07/09 (Influenza A virus (A/California/07/2009(H1N1)), UniProt C3W5X2); assay: biochemical; conditions: Competition binding (AlphaLISA), pIC50 H1 A/California/07/09
in vitro = conditions: dog, Cytotoxicity (pCC50) MDCK
[4] = target: HA H5 A/Vietnam/1203/04 (Influenza A virus (A/Vietnam/1203/2004(H5N1)), UniProt Q5EP31); assay: biochemical; conditions: Competition binding (AlphaLISA), pIC50 H5 A/Vietnam/1203/04
H1N1 A/California/07/09 = assay: microbe, parasite or virus in culture; type: cell-based, influenza A virus; conditions: Influenza A virus, H1N1, MDCK, 96 h, read-out: Virus neutralization assay (VNA), pEC50 H1N1 A/California/07/09 (converted)

Structure (SMILES) | EC50 (H5N1 A/Vietnam/1203/04) [nM] | IC50 [1] [nM] | EC50 [2] [nM] | IC50 [3] [nM] | CC50 (in vitro) [nM] | IC50 [4] [nM] | EC50 (H1N1 A/California/07/09) [nM]
COC(=O)C(c1ccccc1)N1CCN(C(=O)c2cccc(-c3nc4ccccc4o3)c2)CC1 (stereo not drawn) [Example 31] | 7940 | 25.1 | 158 | 31.6 | > 50100 | 1260 | 316
Cc1nnc([C@@H](c2ccccc2)N2CCN(C(=O)c3cccc(-c4nc5c(C)cccc5o4)c3)CC2)o1 [Example 32] | 25100 | 79.4 | 158 | 63.1 | 15800 | 3980 | 316
COC(=O)[C@@H](c1ccccc1)N1CCN(C(=O)c2cccc(-c3nc4ccccc4s3)c2)CC1 [Example 33] | 7940 | 31.6 | 158 | 50.1 | 39800 | 398 | 501
O=C(c1cc(-c2nc3cc(C(F)(F)F)ccc3o2)ccn1)N1CCN(C(c2ccccc2)c2nnc(C3CC3)o2)CC1 (stereo not drawn) [Example 34] | 12600 | 63.1 | 251 | 31.6 | 39800 | 1260 | 126
Cc1nnc(C(c2ccccc2)N2CCN(C(=O)c3cccc(-c4nc5cc(N(C)C)ccc5o4)c3)CC2)o1 (stereo not drawn) [Example 35] | 6310 | 15.8 | 158 | 15.8 | 25100 | 631 | 200
COc1ccc2oc(-c3cccc(C(=O)N4CCN(C(c5ccccc5)c5nnc(C)o5)CC4)c3)nc2c1 (stereo not drawn) [Example 36] | 7940 | 25.1 | 126 | 25.1 | 20000 | 1000 | 158
COC(=O)[C@@H](c1ccccc1)N1CCN(C(=O)c2cccc(-c3nc4cc(C(F)(F)F)ccc4o3)c2)[C@H](C)C1 [Example 37] | 31600 | 50.1 | 251 | 63.1 | > 50100 | 1580 | 251
Cc1nnc([C@@H](c2ccccc2)N2CCN(C(=O)c3cccc(-c4ncc5ccccc5n4)c3)CC2)o1 [Example 38] | 7940 | 50.1 | 200 | 50.1 | > 50100 | 2000 | 316
CNc1ccc2oc(-c3cccc(C(=O)N4CCN(C(c5ccccc5)c5nnc(C)o5)CC4)c3)nc2c1 (stereo not drawn) [Example 39] | 10000 | 31.6 | 200 | 25.1 | 15800 | 1580 | 316
Cc1nnc(C(c2ccccc2)N2CCN(C(=O)c3cc(-c4nc5cc(C(F)(F)F)ccc5o4)ccn3)CC2)o1 (stereo not drawn) [Example 40] | 10000 | 50.1 | 251 | 31.6 | 12600 | 1260 | 158
COC(=O)C(c1ccccc1)N1CCN(C(=O)c2cccc(-c3nc4cc(C(F)(F)F)ccc4o3)c2)CC1 (stereo not drawn) [Example 42] | 15800 | 39.8 | 251 | 39.8 | > 50100 | 1000 | 316
COC(=O)C(c1ccccc1)N1CCN(C(=O)c2cccc(-c3nc4ccncc4o3)c2)CC1 (stereo not drawn) [Example 43] | 10000 | 25.1 | 251 | 31.6 | > 50100 | 1260 | 398
Cc1nnc(C(c2ccccc2)N2CCN(C(=O)c3cccc(-c4nc5cc(O)ccc5o4)c3)CC2)o1 (stereo not drawn) [Example 44] | 12600 | 50.1 | 316 | 50.1 | 39800 | 1580 | 398
Cc1nnc([C@@H](c2ccccc2)N2CCN(C(=O)c3cc(-c4nc5cc(C(F)(F)F)ccc5o4)ccc3F)CC2)o1 [Example 45] | 50100 | 100 | 316 | 63.1 | > 50100 | 7940 | 251
COC(=O)[C@H](c1ccccc1)N1CCN(C(=O)c2cccc(-c3nc4cc(C(F)(F)F)ccc4o3)c2)[C@H](C(N)=O)C1 [Example 46] | 15800 | 31.6 | 158 | 31.6 | 39800 | 794 | 200
Cc1nnc(C(c2ccccc2)N2CCN(C(=O)c3cccc(-c4nc5cc(F)ccc5o4)c3)CC2)o1 (stereo not drawn) [Example 47] | 15800 | 79.4 | 316 | 79.4 | 31600 | 10000 | 398
Cc1nnc(C(c2ccccc2)N2CCN(C(=O)c3cc(-c4nc5cc(OC(F)(F)F)ccc5o4)ccn3)CC2)s1 (stereo not drawn) [Example 49] | 31600 | 200 | 316 | 251 | 15800 | 3980 | 501
COC(=O)C(c1ccccc1)N1CCN(C(=O)c2cccc(-c3nc4cccnc4o3)c2)CC1 (stereo not drawn) [Example 50] | 31600 | 63.1 | 316 | 63.1 | > 50100 | 3980 | 794
CC(=O)Nc1ccc2oc(-c3cccc(C(=O)N4CCN(C(c5ccccc5)c5nnc(C)o5)CC4)c3)nc2c1 (stereo not drawn) [Example 51] | 15800 | 12.6 | 251 | 15.8 | 50100 | 631 | 251
Cn1ccc(C(c2ccccc2)N2CCN(C(=O)c3cccc(-c4nc5cc(C(F)(F)F)ccc5o4)c3)CC2)n1 (stereo not drawn) [Example 53] | > 50100 | 3980 | 398 | 5010 | > 50100 | 20000 | 1000
COC(=O)C(c1ccccc1)N1CCN(C(=O)c2cncc(-c3nc4ccc(OC)cc4s3)c2)CC1 (stereo not drawn) [Example 54] | 6310 | 50.1 | 398 | 100 | 50100 | 398 | 1260
COc1ccc2nc(-c3cccc(C(=O)N4CCN(C(C(=O)NCCCN)c5ccccc5)CC4)c3)sc2c1 (stereo not drawn) [Example 55] | 10000 | 50.1 | 398 | 63.1 | > 50100 | 631 | 2000
COc1ccc2nc(-c3cccc(C(=O)N4CCN(C(c5ccccc5)c5nncs5)CC4)c3)sc2c1 (stereo not drawn) [Example 56] | > 50100 | 158 | 398 | 398 | > 50100 | 3160 | 5010
O=C(c1cccc(-c2nc3cc(C(F)(F)F)ccc3o2)c1)N1CCN(C(c2ccccc2)c2nnc(C3(O)CCC3)o2)CC1 (stereo not drawn) [Example 57] | 20000 | 79.4 | 501 | 50.1 | 39800 | 2510 | 251
COC(=O)[C@@H](c1ccccc1)N1CCN(C(=O)c2cccc(-c3nc4cc(C(F)(F)F)ccc4o3)c2)[C@@H](CC(N)=O)C1 [Example 58] | 5010 | 31.6 | 398 | 39.8 | 39800 | 1000 | 398
COC(=O)C(c1ccccc1)N1CCN(C(=O)c2cccc(-c3nc4cc(Cl)ccc4o3)c2)CC1 (stereo not drawn) [Example 59] | 20000 | 63.1 | 501 | 63.1 | > 50100 | 2000 | 398
COC(=O)C(c1ccccc1)N1CCN(C(=O)c2cccc(-c3nc4ccc(OC)cc4o3)c2)CC1 (stereo not drawn) [Example 60] | 12600 | 39.8 | 501 | 63.1 | 25100 | 1580 | 631
COc1ccc2nc(-c3cccc(C(=O)N4CCN([C@H](c5ccccc5)c5nnn(C)n5)CC4)c3)sc2c1 [Example 61] | 2000 | 63.1 | 501 | 79.4 | 39800 | 501 | 631
COC(=O)[C@H](c1ccccc1)N1CCN(C(=O)c2cccc(-c3nc4cc(C(F)(F)F)ccc4o3)c2)[C@@H](C(N)=O)C1 [Example 62] | 20000 | 100 | 631 | 100 | 39800 | 3160 | 631
Cc1nnc([C@@H](c2ccccc2)N2CCN(C(=O)c3cc(F)cc(-c4nc5cc(C(F)(F)F)ccc5o4)c3)CC2)o1 [Example 63] | > 50100 | 158 | 501 | 158 | > 50100 | 15800 | 631
